From US20250002527A1, “STEROID COMPOUND AND CONJUGATE THEREOF” (DUALITY BIOLOGICS (SUZHOU) CO., LTD., priority 2021, published 2025)

System: human PBMC cells
Experiment: IFN-α secretion from PBMC under R848 stimulation (compounds)
Format: cell-based
Conditions: R848 5 μM, 24 hours, mean ± standard deviation
Protocol: The compounds of the present application were tested for their inhibitory effect on the production of peripheral blood monocytes. The peripheral blood monocytes were treated in vitro with the ligand-drug conjugate at different concentrations, and IFNα and TNFα generated by the peripheral blood monocytes were quantitatively detected after a certain time. The compounds of the present invention were evaluated for in-vitro activity.
The cryopreserved human PBMC cells were resuspended in a complete medium and counted, and the cell suspension was adjusted to 2.5×10*6 cells/mL with the culture medium. After the suspension was centrifuged to collect the cells the next day, the cells were resuspended using fresh culture medium. Test compounds were diluted to 4-fold final concentration in cell culture medium, 50 μL of the compounds were added into a 96-well cell plate, and 100 μL of diluted cells ([…]) were added into each well of the 96-well plate containing the compounds, followed by addition of 50 μL R848 to a final concentration of 5 μM. The cell plate was incubated at 37° C. with 5% CO2 for 24 hours. The supernatant was collected, and the TNF-α and IFN-α concentration levels in the supernatant were detected using an ELISA kit.
50 μL of biotinylated antibody working solution was added into each well. After mixing well, the plate was covered with the plate-sealing membrane and incubated at room temperature for 3 hours. […] The procedure was repeated for 3 times. 100 μL of Streptavidin-HRP working solution was added into each well. The plate was covered with the plate-sealing membrane and incubated at room temperature for 20 minutes. The plate was washed for 3 times, 100 μL of TMB liquid was added into each well, and the plate was incubated for 25 minutes at room temperature (18-25° C.) in the dark. The reaction was stopped by adding 100 μL stop solution rapidly to each well. The reading at a wavelength of 450 nm was detected by an M2e instrument within 10 minutes after termination.
The contents of TNF-α and IFN-α were calculated from the OD450 values.

C[C@]12C=CC(=O)C=C1CC[C@@H]1[C@@H]2[C@@H](O)C[C@@]2(C)[C@H]1C[C@H]1O[C@@H](c3ccc(Cc4ccc(CO)cc4)cc3)O[C@]12C(=O)CO [Compound 4]
IFN-α secretion (pg/mL) from PBMC under R848 stimulation (compound 4 nM): 13.2 ± 13.2 pg/mL
IFN-α secretion (pg/mL) from PBMC under R848 stimulation (compound 20 nM): 27.9 ± 27.9 pg/mL
IFN-α secretion (pg/mL) from PBMC under R848 stimulation (compound 100 nM): 0 ± 0 pg/mL
